The values below come from patent US10577346B2, “Benzobicycloalkane derivatives, their preparation and pharmaceutical use thereof” (priority 2016, dated 2020).

A value given as a limit tells only on which side of the number the result lay.

The target in one series is T1, hERG potassium channel (Homo sapiens, UniProt Q12809).
T1 construct: host or cells: CHO cells stably expressing hERG
As to the kind of experiment: Inhibition of hERG potassium ion channel, manual whole-cell patch clamp in CHO hERG cells. The settings on record: human, CHO cells stably expressing hERG. Type of series: cell-based. Here is the method: Assay 2: Inhibition of hERG Potassium Ion Channel
2.1.1 Cells used in this experiment were CHO cell lines transfected with hERG cDNA and stably expressing hERG channels (supplied by Sophion Bioscience, Denmark), with cell progeny being P15. Cells were cultured in medium containing the following ingredients Invitrogen): Ham's F12 medium, 10% (v/v) inactivated fetal bovine serum, […] hygromycin B, and […] Geneticin.
2.1.2 CHO hERG cells were grown in Petri dishes containing the above medium and cultured in an incubator of 5% CO2 at 37° C. CHO hERG cells were transferred onto round glass plates in Petri dishes and grown on the same culture medium and culture conditions as above 24 h to 48 h prior to the electrophysiological experiments. The density of CHO hERG cells on each round glass plate must meet the requirements that the vast majority of cells are independent and separate.
2.2 Experimental Solution
The following solutions (recommended by Sophion) were used for electrophysiological recording. The reagents used in this test were provided by Sigma.
2.3 Electrophysiological Recording System
In this experiment, whole-cell current recording was performed using a manual patch clamp system (HEKA EPC-10 signal amplification and digital conversion system, purchased from HEKA Electronic, Germany). The round glass slide of which surface CHO hERG cells were grown on was placed in an electrophysiological recording slot under an inverted microscope. Extracellular fluid was perfused continuously in the recording slot (approximately 1 ml per minute). Conventional whole-cell patch clamp current recording technique was used in the experiment. Unless otherwise specified, the experiments were performed at normal room temperature (25° C.). Cell patch clamp at −80 mV. Cell patch clamp voltage was depolarized to +20 mV to activate hERG potassium channel, and to −50 mV after 5 sec to eliminate inactivation and generate tail currents. The tail current peak was used as a value for hERG current. When the hERG potassium current recorded in the above steps became steady under continuous perfusion of the extracellular fluid in the recording slot, the subject drug to be tested could be added to the perfusion until the inhibition of the hERG current by the drug reached a steady state. Typically, the most recent three consecutive current recording lines were generally used as a measure to determine whether the state was stable. After reaching a steady state, it was perfused with extracellular fluid for washing until the hERG current returned to the value before the drug adding. One or more drugs, or multiple concentrations of the same drug, could be tested on a single cell but it was necessary to rinse with extracellular fluid before testing a different drug. Cisapride (purchased from Sigma) was used as a positive control in the experiments to ensure normal quality of the cells used.
2.4 Treatment and Dilution of Compounds
The compound was first dissolved in DMSO to a concentration of 10 mM and then the compound was diluted 1000-fold to a final test concentration of 10 μM using extracellular fluid.
The final concentration of DMSO in the compound test solution was 0.1%. The test concentration of cisapride as a positive control was 0.1 μM. All stock solutions and test solutions were subjected to regular 5-10 minutes of sonication and shaking to ensure complete dissolution of the compound.
The test data were analyzed by the data analysis software provided by HEKA Patchmaster (V2x73.2), Microsoft Excel and Graphpad Prism 5.0.

In a further series the target is T2, CYP3A4 (Homo sapiens, UniProt P08684).
T2 construct: from tissue; host or cells: liver microsomes
As to the kind of experiment: Inhibition of CYP enzyme (CYP3A4, midazolam substrate, liver microsomes). The class given is in vitro ADME. The settings on record: human, pH 7.4, midazolam (M) as probe substrate. Here is the method: Assay 3: Inhibition of CYP Enzyme
1. 0.1 M potassium phosphate buffer (K-buffer), pH 7.4 was preheated;
100 mM K-Buffer: 9.5 mL Stock A and 40.5 mL Stock B were mixed, brought to a total volume of 500 mL with Milli-Q water, and titrated to pH 7.4 of KOH or H3PO4;
Stock A (1 M monobasic potassium phosphate): 136.5 g of monobasic potassium phosphate was dissolved in 1 L of Milli-Q water; and
Stock B (1 M dibasic potassium phosphate): 174.2 g of dibasic potassium phosphate was dissolved in 1 L of Milli-Q water.
2. Serial dilutions of test compounds and reference inhibitors (400×) were prepared in a 96-well plate:
2.1 8 μL of 10 mM test compounds was transferred to 12 μL of ACN. 2.2 A separate inhibitor solution was prepared for reference: 8 μL of inhibitor DMSO stock was added with 12 μL of ACN.
2.3 A 1:3 serial dilution was prepared with a DMSO:ACN mixture (v/v: 40:60).
3. 4×NADPH cofactor (66.7 mg NADPH dissolved in 10 mL 0.1 M K-buffer, pH 7.4) was prepared.
4. 4× substrate (2 mL for each isoform) was prepared as indicated in the table below (Liver microsomes must be added on ice).
5. 0.2 mg/mL liver microsome solution (990 μL of 0.1 M K-buffer was added to each 10 μL of 20 mg/mL) was prepared on ice.
6. 200 μL of 0.2 mg/mL liver microsomes was added on ice to a 96-well plate and then 1 μL of test compound or reference compound was added into corresponding wells.
7. The following solutions were added to a 96-well plate (in duplicate) on ice:
7.1 30 μL of 2× test compounds and reference compound in 0.2 mg/mL liver microsome solution were added;
7.2 15 μL of 4× substrate solution was added.
8. The 96-well assay plate and NADPH solution were pre-heated at 37° C. for 5 minutes.
9. 15 μL of pre-heated 8 mM NADPH solution was added into the assay plates to initiate the reaction.
10. The 3A4 subtype was incubated at 37° C. for 5 min for.
11. The reaction was quenched by adding 120 μL of ACN containing an internal standard.
12. After quenching, the plates were shaked in a vibrator (IKA, MTS 2/4) for 5 min (600 rpm/min) and then centrifuged at 3, 750 rpm for 15 min (Allegra X-12R centrifuge).
13. After centrifugation, 50 μL of the supernatant from each well was taken into a 96-well plate containing 70 μL of wastons water and mixed for LC/MS analysis.

A short description of a further series: in vivo. The settings on record: male, SD, rat, 10 mg/kg, oral administration of dezocine in rats, Dezocine dosed at 10 mpk.
For series [1] the following is noted: cited from earlier work.

T1 sequence (Q12809 whole entry): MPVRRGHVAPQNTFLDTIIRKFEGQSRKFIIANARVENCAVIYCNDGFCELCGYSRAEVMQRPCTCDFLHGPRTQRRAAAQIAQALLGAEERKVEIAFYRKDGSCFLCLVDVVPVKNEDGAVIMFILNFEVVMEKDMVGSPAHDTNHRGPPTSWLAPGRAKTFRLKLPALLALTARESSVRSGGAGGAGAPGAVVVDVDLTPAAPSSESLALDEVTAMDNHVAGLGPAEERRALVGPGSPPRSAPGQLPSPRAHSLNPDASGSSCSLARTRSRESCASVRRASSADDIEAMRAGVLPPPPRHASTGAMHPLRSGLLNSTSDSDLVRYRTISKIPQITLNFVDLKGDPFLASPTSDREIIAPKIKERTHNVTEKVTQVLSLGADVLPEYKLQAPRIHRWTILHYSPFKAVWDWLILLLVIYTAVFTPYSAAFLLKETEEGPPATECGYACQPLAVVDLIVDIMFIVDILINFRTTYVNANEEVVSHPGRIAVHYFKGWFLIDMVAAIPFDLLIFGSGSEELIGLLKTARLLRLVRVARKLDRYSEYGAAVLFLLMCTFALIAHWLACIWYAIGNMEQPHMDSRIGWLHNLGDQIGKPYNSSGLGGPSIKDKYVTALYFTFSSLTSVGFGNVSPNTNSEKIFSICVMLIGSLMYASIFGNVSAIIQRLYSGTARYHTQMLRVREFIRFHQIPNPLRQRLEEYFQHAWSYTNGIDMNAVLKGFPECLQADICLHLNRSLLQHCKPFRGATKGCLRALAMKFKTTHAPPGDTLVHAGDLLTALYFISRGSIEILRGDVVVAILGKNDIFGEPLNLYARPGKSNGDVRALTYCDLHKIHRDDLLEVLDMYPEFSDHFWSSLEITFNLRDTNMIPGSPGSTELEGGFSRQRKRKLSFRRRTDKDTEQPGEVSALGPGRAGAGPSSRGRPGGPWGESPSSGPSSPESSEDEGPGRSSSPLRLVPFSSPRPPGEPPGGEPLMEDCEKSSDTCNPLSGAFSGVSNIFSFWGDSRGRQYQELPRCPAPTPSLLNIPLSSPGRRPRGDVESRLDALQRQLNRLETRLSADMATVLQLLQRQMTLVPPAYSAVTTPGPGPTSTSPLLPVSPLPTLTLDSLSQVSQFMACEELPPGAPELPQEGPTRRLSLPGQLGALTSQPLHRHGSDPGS
T2 sequence (P08684 whole entry): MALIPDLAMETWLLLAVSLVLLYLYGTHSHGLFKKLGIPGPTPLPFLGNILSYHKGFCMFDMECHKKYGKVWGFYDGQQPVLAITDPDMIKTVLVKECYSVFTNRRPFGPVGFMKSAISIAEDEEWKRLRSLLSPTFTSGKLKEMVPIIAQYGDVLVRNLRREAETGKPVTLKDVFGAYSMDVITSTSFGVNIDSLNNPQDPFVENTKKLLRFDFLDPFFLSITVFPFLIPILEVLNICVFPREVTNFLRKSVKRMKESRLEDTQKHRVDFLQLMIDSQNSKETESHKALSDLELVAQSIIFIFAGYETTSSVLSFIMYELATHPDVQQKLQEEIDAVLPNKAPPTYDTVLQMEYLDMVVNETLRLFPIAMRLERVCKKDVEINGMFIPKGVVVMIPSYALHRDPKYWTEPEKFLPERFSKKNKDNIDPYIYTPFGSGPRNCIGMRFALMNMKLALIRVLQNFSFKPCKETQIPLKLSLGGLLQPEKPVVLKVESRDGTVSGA
Procedure for in vivo: LC-MS/MS method was applied for the determination of the drug concentration in plasma at different times after the example compounds were administered via gavage to rats in order to study the pharmacokinetic behavior of the compounds of the disclosure in vivo in rats and evaluate their pharmacokinetic characteristics.
Test animals: healthy adult male SD rats (weight 200-300 g, 3, fasted), provided by SLAC company;
Administration and dosage: 16 mg/kg or 24 mg/kg, 10 mL/kg, 5% 1,2-propanediol (1,2-Propanediol, Shanghai Titan Technology Co., Ltd. Lot No.: P1057349)) was administered via oral gavage to SD rats;
Blood collection: firstly, the animals which were selected to meet the test requirements prior to administration were weighed and labelled. The rats were bound before the blood collection, about 150 μl of blood from each administered rat was taken at predetermined time points via orbital vein (blood was collected before administration and at 0.083, 0.25, 0.5, 1, 2, 4, 6, and 8 h after administration respectively, 9 time points in total). Blood was transferred to a 1.5 ml tube to which K2EDTA was added previously. The collected blood sample was put on wet ice, and centrifuged (2000 g, 5 min under 4° C.) to obtain plasma sample, the whole process of which was completed within 15 minutes after blood collection. All the samples were stored at approximately −70° C. until analysis. […]

Regarding `C[C@@]12CCCCC[C@@H](Cc3ccc(OC(=O)N4CCC(N5CCCCC5)CC4)cc31)[C@@H]2N` [Compound Z-49], on hERG potassium channel, the inhibition at 10 μM stood at 14.4%. Further, the inhibition at 5 min, 1 μM on CYP3A4 came out at 7.28%.

`C[C@@]12CCCCC[C@@H](Cc3ccc(O)cc31)[C@@H]2N` [Dezocine, dezocine] registered an AUC in “in vivo” of 58.6 ng·h/mL. The oral bioavailability in series [1] is given as no more than 5%.
